Read-outs that look alike come from different tables or passages of the source.
How the values were obtained:
[1] = biological target: T1, purified recombinant human Aggrecanase-1 (rAgg1) (Homo sapiens, UniProt O75173); assay: In vitro fluorescence screen for Aggrecanase-1 inhibitors; format: biochemical; parameters: Agg1 % at concentration: scale not given here; settings: for IC50: read-out: Agg1 IC50; for Ki: read-out: Ki Agg1
T1 sequence (O75173 213-837): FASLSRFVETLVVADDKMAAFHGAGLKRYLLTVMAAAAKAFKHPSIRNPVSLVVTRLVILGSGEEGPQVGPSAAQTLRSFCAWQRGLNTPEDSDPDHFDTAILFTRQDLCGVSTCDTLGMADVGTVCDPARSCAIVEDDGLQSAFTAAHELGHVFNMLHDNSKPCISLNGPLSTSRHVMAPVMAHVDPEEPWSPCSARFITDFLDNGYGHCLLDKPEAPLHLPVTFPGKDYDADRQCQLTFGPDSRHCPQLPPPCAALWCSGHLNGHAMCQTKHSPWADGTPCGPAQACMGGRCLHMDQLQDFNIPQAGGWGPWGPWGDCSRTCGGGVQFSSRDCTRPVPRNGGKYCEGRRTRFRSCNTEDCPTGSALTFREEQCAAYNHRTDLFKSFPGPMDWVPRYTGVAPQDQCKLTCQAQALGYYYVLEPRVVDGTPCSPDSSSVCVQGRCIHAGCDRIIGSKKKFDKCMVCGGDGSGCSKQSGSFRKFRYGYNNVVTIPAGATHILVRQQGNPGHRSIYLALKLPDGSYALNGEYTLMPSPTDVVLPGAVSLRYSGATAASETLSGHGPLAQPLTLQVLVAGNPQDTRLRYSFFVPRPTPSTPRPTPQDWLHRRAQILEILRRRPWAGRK

[2] = biological target: T2, purified recombinant human Aggrecanase-2 (Ag2t-Phe628-Strep) (Homo sapiens, UniProt Q9UNA0); assay: In vitro fluorescence screen for Aggrecanase-2 inhibitors; format: biochemical; settings: for IC50: read-out: Agg 2 IC50; for Ki: read-out: Ki Agg2
T2 construct: the form used is denoted as Ag2t-Phe628-Strep (MW=41,737)
T2 sequence (Q9UNA0 262-628): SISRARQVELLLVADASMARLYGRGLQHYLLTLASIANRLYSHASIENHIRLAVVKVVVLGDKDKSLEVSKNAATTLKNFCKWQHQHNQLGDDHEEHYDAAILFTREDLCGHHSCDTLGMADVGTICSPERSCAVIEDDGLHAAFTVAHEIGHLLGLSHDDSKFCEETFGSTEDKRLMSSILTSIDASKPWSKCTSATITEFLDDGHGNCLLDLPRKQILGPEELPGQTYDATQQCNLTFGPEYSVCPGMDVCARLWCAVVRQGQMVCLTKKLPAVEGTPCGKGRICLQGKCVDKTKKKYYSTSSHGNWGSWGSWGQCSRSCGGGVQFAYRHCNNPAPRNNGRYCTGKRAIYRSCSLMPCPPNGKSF

[3] = read-out: Agg 2 % at concentration

Structure (SMILES) | IC50 ([1]; Table 2) | IC50 ([2]; Table 2) | IC50 ([1]; Table 3) | IC50 ([2]; Table 3) | also measured
COc1cc(CNC(=O)[C@H](CCC(=O)O)NC(=O)c2ccc(-c3cccc(C(C)C)c3)cc2)cc(OC)c1OC [Example 17Z, N^2-[(3′-isopropylbiphenyl-4-yl)carbonyl]-N-(3,4,5-trimethoxybenzyl)-L-α-glutamine] | 170 nM | 3140 nM | – | – | –
COc1cc(CNC(=O)[C@H](CCC(=O)O)NC(=O)c2ccc(Br)cc2)cc(OC)c1OC [Example 18D, N^2-(4-bromobenzoyl)-N-(3,4,5-trimethoxybenzyl)-L-α-glutamine] | 4400 nM | > 22000 nM | – | – | –
O=C(O)CC[C@H](NC(=O)c1ccc(Br)cc1)C(=O)NCC12CC3CC(CC(C3)C1)C2 [Example 18F, N-(1-adamantylmethyl)-N^2-(4-bromobenzoyl)-L-α-glutamine] | > 67000 nM | > 67000 nM | – | – | –
COc1cccc(COc2ccc(-c3ccc(C(=O)N[C@@H](CCC(=O)O)C(=O)NCC45CC6CC(CC(C6)C4)C5)cc3)cc2)c1 [Example 19A, N-(1-adamantylmethyl)-N^2-({4′-[(3-methoxybenzyl)oxy]biphenyl-4-yl}carbonyl)-L-α-glutamine] | 930 nM | 1020 nM | – | – | –
COc1cc(COc2ccc(-c3ccc(C(=O)N[C@@H](CCC(=O)O)C(=O)NCC45CC6CC(CC(C6)C4)C5)cc3)cc2)cc(OC)c1 [Example 19B, N-(1-adamantylmethyl)-N^2-(4′-{[(3,5-dimethoxybenzyl)oxy]biphenyl-4-yl}carbonyl)-L-α-glutamine] | 3200 nM | 590 nM | – | – | –
COc1cc(COc2ccc(-c3ccc(C(=O)N[C@@H](CCC(=O)O)C(=O)NC(C)(C)Cc4ccccc4)cc3)cc2)cc(OC)c1 [Example 19C, N^2-({4′-[(3,5-dimethoxybenzyl)oxy]biphenyl-4-yl}carbonyl)-N-(1,1-dimethyl-2-phenylethyl)-L-α-glutamine] | 140 nM | 75 nM | – | – | –
COc1cc(CNC(=O)[C@H](CCC(=O)O)NC(=O)c2ccc(-c3ccc(OCc4cc(C)cc(C)c4)cc3)cc2)cc(OC)c1OC [Example 19D, N^2-({4′-[(3,5-dimethylbenzyl)oxy]biphenyl-4-yl}carbonyl)-N-(3,4,5-trimethoxybenzyl)-L-α-glutamine] | 210 nM | 223 nM | – | – | –
COc1cc(CNC(=O)[C@H](CCC(=O)O)NC(=O)c2ccc(-c3ccc(OCc4cc(C(F)(F)F)cc(C(F)(F)F)c4)cc3)cc2)cc(OC)c1OC [Example 19E, N^2-[(4′-{[3,5-bis(trifluoromethyl)benzyl]oxy}biphenyl-4-yl)carbonyl]-N-(3,4,5-trimethoxybenzyl)-L-α-glutamine] | 49 nM | 1120 nM | – | – | –
COc1cc(COc2ccc(-c3ccc(C(=O)N[C@@H](CCC(=O)O)C(=O)NCCCCCCO)cc3)cc2)cc(OC)c1 [Example 19G, N^2-({4′-[(3,5-dimethoxybenzyl)oxy]biphenyl-4-yl}carbonyl)-N-(6-hydroxyhexyl)-L-α-glutamine] | 270 nM | 146 nM | – | – | –
COc1cccc(COc2ccc(-c3ccc(C(=O)N[C@@H](CCC(=O)O)C(=O)NCc4cc(OC)c(OC)c(OC)c4)cc3)cc2)c1 [Example 19H, N^2-({4′-[(3-methoxybenzyl)oxy]biphenyl-4-yl}carbonyl)-N-(3,4,5-trimethoxybenzyl)-L-α-glutamine] | 69 nM | 158 nM | – | – | –
CC(C)(Cc1ccccc1)NC(=O)[C@H](CCC(=O)O)NC(=O)c1ccc(-c2ccccc2)o1 [N-(1,1-dimethyl-2-phenylethyl)-N^2-(5-phenyl-2-furoyl)-L-α-glutamine] | – | – | – | – | Agg1 % at concentration ([1]; Table 3, at 8300 (nM)): 30%; Agg 2 % at concentration ([2]; Table 3, at 25000 (nM)): 28%
CC(C)(Cc1ccccc1)NC(=O)[C@H](CCC(=O)O)NC(=O)c1ccc(-c2nccs2)cc1 [N-(1,1-dimethyl-2-phenylethyl)-N^2-[4-(1,3-thiazol-2-yl)benzoyl]-L-α-glutamine] | – | – | 270 nM | – | inhibition at 25 µM [2, 3]: 62%
CC(C)(Cc1ccc(Cl)cc1)NC(=O)[C@H](CCC(=O)O)NC(=O)c1ccc(-c2ccccc2)o1 [N-[2-(4-chlorophenyl)-1,1-dimethylethyl]-N^2-(5-phenyl-2-furoyl)-L-α-glutamine] | – | – | – | – | Agg1 % at concentration ([1]; Table 3, at 16700 (nM)): 60%; Agg 2 % at concentration ([2]; Table 3, at 50000 (nM)): 50%
CC(C)(Cc1ccc(Cl)cc1)NC(=O)[C@H](CCC(=O)O)NC(=O)c1cccc(-c2cccs2)c1 [N-[2-(4-chlorophenyl)-1,1-dimethylethyl]-N^2-[3-(2-thienyl)benzoyl]-L-α-glutamine] | – | – | – | – | Agg1 % at concentration ([1]; Table 3, at 25000 (nM)): 16%; Agg 2 % at concentration ([2]; Table 3, at 25000 (nM)): 10%
CC(C)(Cc1ccc(Cl)cc1)NC(=O)[C@H](CCC(=O)O)NC(=O)c1ccc(-c2nccs2)cc1 [N-[2-(4-chlorophenyl)-1,1-dimethylethyl]-N^2-[4-(1,3-thiazol-2-yl)benzoyl]-L-α-glutamine] | – | – | 1200 nM | – | inhibition at 2.5 µM [2, 3]: 50%
CC(C)(Cc1ccc(Cl)cc1)NC(=O)[C@H](CCC(=O)O)NC(=O)c1ccc(-c2ccc3c(c2)OCC3)cc1 [N-[2-(4-chlorophenyl)-1,1-dimethylethyl]-N^2-[4-(2,3-dihydro-1-benzofuran-6-yl)benzoyl]-L-α-glutamine] | – | – | – | 90 to 270 nM | Agg1 % at concentration ([1]; Table 3, at 200 (nM)): 65%

Continued, in another order:

IC50 ([1]; Table 2) | IC50 ([2]; Table 2) | IC50 ([1]; Table 3) | IC50 ([2]; Table 3) | Structure (SMILES) | also measured
2200 nM | > 11000 nM | – | – | CC(C)(Cc1ccccc1)NC(=O)[C@H](CCC(=O)O)NC(=O)c1ccc(Br)cc1 [Example 18E, N^2-(4-bromobenzoyl)-N-(1,1-dimethyl-2-phenylethyl)-L-α-glutamine] | –
68 nM | 163 nM | – | – | COc1cccc(COc2ccc(-c3ccc(C(=O)N[C@@H](CCC(=O)O)C(=O)NC(C)(C)Cc4ccccc4)cc3)cc2)c1 [Example 19F, N-(1,1-dimethyl-2-phenylethyl)-N^2-({4′-[(3-methoxybenzyl)oxy]biphenyl-4-yl}carbonyl)-L-α-glutamine] | –
– | – | < 30 nM | 60 to 200 nM | CC(C)(Cc1ccccc1)NC(=O)[C@H](CCC(=O)O)NC(=O)c1ccc(-c2cccs2)cc1 [N-(1,1-dimethyl-2-phenylethyl)-N^2-[4-(2-thienyl)benzoyl]-L-α-glutamine] | Ki ([1]; Table 3): < 3 nM; Ki ([2]; Table 3): 38 nM
– | – | < 30 nM | 500 nM | CC(C)(Cc1ccccc1)NC(=O)[C@H](CCC(=O)O)NC(=O)c1ccc(-c2ccc(C=O)s2)cc1 [N-(1,1-dimethyl-2-phenylethyl)-N^2-[4-(5-formyl-2-thienyl)benzoyl]-L-α-glutamine] | –
– | – | – | 7200 nM | CC(C)(Cc1ccccc1)NC(=O)[C@H](CCC(=O)O)NC(=O)c1ccc(-c2cccnc2)s1 [N-(1,1-dimethyl-2-phenylethyl)-N^2-[(5-pyridin-3-yl-2-thienyl)carbonyl]-L-α-glutamine] | Agg1 % at concentration ([1]; Table 3, at 70 (nM)): 57% 70
– | – | < 30 nM | 3300 nM | CC(C)(Cc1ccccc1)NC(=O)[C@H](CCC(=O)O)NC(=O)c1ccc(-c2ccncc2)s1 [N-(1,1-dimethyl-2-phenylethyl)-N^2-[(5-pyridin-4-yl-2-thienyl)carbonyl]-L-α-glutamine] | –
– | – | 100 nM | 700 nM | CC(C)(Cc1ccccc1)NC(=O)[C@H](CCC(=O)O)NC(=O)c1ccc(-c2ccccc2)nc1 [N-(1,1-dimethyl-2-phenylethyl)-N^2-[(6-phenylpyridin-3-yl)carbonyl]-L-α-glutamine] | –
– | – | < 30 nM | 70 to 200 nM | COc1cccc(-c2ccc(C(=O)N[C@@H](CCC(=O)O)C(=O)NC(C)(C)Cc3ccccc3)s2)c1 [N-(1,1-dimethyl-2-phenylethyl)-N^2-{[5-(3-methoxyphenyl)-2-thienyl]carbonyl}-L-α-glutamine] | Ki ([1]; Table 3): < 3 nM; Ki ([2]; Table 3): 151 nM
– | – | < 30 nM | 70 to 200 nM | CC(C)(Cc1ccc(Cl)cc1)NC(=O)[C@H](CCC(=O)O)NC(=O)c1ccc(-c2ccc(Cl)s2)cc1 [N-[2-(4-chlorophenyl)-1,1-dimethylethyl]-N^2-[4-(5-chloro-2-thienyl)benzoyl]-L-α-glutamine] | Ki ([1]; Table 3): 5.4 nM; Ki ([2]; Table 3): 51 nM
– | – | < 30 nM | 900 nM | CC(C)(Cc1ccc(Cl)cc1)NC(=O)[C@H](CCC(=O)O)NC(=O)c1ccc(-c2ccc(C=O)s2)cc1 [N-[2-(4-chlorophenyl)-1,1-dimethylethyl]-N^2-[4-(5-formyl-2-thienyl)benzoyl]-L-α-glutamine] | –
– | – | > 25000 nM | > 100000 nM | CC(C)(Cc1ccc(Cl)cc1)NC(=O)[C@H](CCC(=O)O)NC(=O)c1sccc1-c1ccccc1 [N-[2-(4-chlorophenyl)-1,1-dimethylethyl]-N^2-[(3-phenyl-2-thienyl)carbonyl]-L-α-glutamine] | –
